The structures appear in SMILES notation. Counter-ions that a name gives are not always drawn.

In this assay the target is IRE1α (Homo sapiens (Human), UniProt O75460, D688N). Description: IRE1α TR-FRET competition binding assay (IRE1α HTRF). Particulars: TR-FRET competition binding to kinase domain of IRE1α. The gist of the method: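 Kinase domain (0.25 nM) pre-bound to 2 nM Eu anti-His antibody for 1 h at 4° C in HEPES pH 7.5/MgCl2/Brij 35/DTT/gamma globulin buffer, then mixed with compounds and 2 nM Alexa 647 ATP-competitive probe. 1 h at room temperature; probe displacement read as TR-FRET (Ex 347 nm, Em 665/615 nm).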
Sequence of IRE1α (O75460 547-977 D688N): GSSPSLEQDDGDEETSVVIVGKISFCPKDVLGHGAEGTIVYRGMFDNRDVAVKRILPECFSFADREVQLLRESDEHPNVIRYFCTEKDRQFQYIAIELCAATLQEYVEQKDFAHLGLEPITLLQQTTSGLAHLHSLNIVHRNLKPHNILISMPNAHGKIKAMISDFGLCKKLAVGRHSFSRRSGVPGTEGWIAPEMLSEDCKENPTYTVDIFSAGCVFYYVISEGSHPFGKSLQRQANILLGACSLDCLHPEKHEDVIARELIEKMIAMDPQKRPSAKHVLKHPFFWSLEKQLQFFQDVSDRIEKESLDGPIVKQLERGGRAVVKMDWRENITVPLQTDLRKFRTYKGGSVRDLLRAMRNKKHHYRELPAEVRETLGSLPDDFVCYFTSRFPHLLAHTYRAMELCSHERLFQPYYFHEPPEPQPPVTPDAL
A general note: In TR-FRET formats the signal depends on donor and acceptor labels being close together.
`CC(C)n1c(=O)c(-c2ccc(NS(=O)(=O)c3ccccc3Cl)nc2)cc2cnc(N[C@@H]3CNC[C@@H](F)C3)nc21` [Compound 147, 2-Chloro-N-(5-(2-(((3S,5S)-5-fluoropiperidin-3-yl)amino)-8-isopropyl-7-oxo-7,8-dihydropyrido[2,3-d]pyrimidin-6-yl)pyridin-2-yl)benzenesulfonamide]: the IC50 was 0.27 nM.
Then `CC(C)n1c(=O)c(-c2ccc(NS(=O)(=O)c3ccccc3C#N)nc2)cc2cnc(N[C@H]3CC[C@H](N(C)CCF)CC3)nc21` [Compound 148, 2-Cyano-N-(5-(2-(((1r,4r)-4-((2-fluoroethyl)(methyl)amino)cyclohexyl)amino)-8-isopropyl-7-oxo-7,8-dihydropyrido[2,3-d]pyrimidin-6-yl)pyridin-2-yl)benzenesulfonamide], with 0.23 nM; and `CC(C)n1c(=O)c(-c2ccc(NS(=O)(=O)c3ccccc3OC(F)(F)F)nc2)cc2cnc(N[C@H]3CC[C@H](N(C)C)CC3)nc21` [Compound 150, N-(5-(2-(((1r,4r)-4-(Dimethylamino)cyclohexyl)amino)-8-isopropyl-7-oxo-7,8-dihydropyrido[2,3-d]pyrimidin-6-yl)pyridin-2-yl)-2-(trifluoromethoxy)benzenesulfonamide], with 0.26 nM; and `CC(C)n1c(=O)c(-c2ccc(NS(=O)(=O)CC3CC(F)(F)C3)c(F)c2)cc2cnc(N[C@H]3CC[C@H](N(C)C)CC3)nc21` [Compound 151, 1-(3,3-Difluorocyclobutyl)-N-(4-(2-(((1r,4r)-4-(dimethylamino)cyclohexyl)amino)-8-isopropyl-7-oxo-7,8-dihydropyrido[2,3-d]pyrimidin-6-yl)-2-fluorophenyl)methanesulfonamide], with 0.19 nM.
`CC(C)n1c(=O)c(-c2ccc(NS(=O)(=O)CC3CCCCC3)nc2)cc2cnc(N[C@H]3CC[C@H](N(C)C)CC3)nc21` [Compound 152, 1-Cyclohexyl-N-(5-(2-(((1r,4r)-4-(dimethylamino)cyclohexyl)amino)-8-isopropyl-7-oxo-7,8-dihydropyrido[2,3-d]pyrimidin-6-yl)pyridin-2-yl)methanesulfonamide] showed an IC50 of 0.18 nM.
As to `CC(C)n1c(=O)c(-c2ccc(NS(=O)(=O)Cc3ccc(F)cc3)c(F)c2)cc2cnc(N[C@H]3CC[C@H](N(C)CCF)CC3)nc21` [Compound 155, N-(2-Fluoro-4-(2-(((1r,4r)-4-((2-fluoroethyl)(methyl)amino)cyclohexyl)amino)-8-isopropyl-7-oxo-7,8-dihydropyrido[2,3-d]pyrimidin-6-yl)phenyl)-1-(4-fluorophenyl)methanesulfonamide], the IC50 was 0.23 nM.
Then `CC(C)n1c(=O)c(-c2ccc(NS(=O)(=O)CC3CC(F)(F)C3)c(F)c2)cc2cnc(N[C@H]3CC[C@H](N(C)CCF)CC3)nc21` [Compound 156, 1-(3,3-Difluorocyclobutyl)-N-(2-fluoro-4-(2-(((1r,4r)-4-((2-fluoroethyl)(methyl)amino)cyclohexyl)amino)-8-isopropyl-7-oxo-7,8-dihydropyrido[2,3-d]pyrimidin-6-yl)phenyl)methanesulfonamide], with 0.18 nM; and `CC(C)n1c(=O)c(-c2ccc(NS(=O)(=O)CCC(F)(F)F)c(F)c2)cc2cnc(N[C@H]3CC[C@H](N(C)CCF)CC3)nc21` [Compound 157, 3,3,3-trifluoro-N-(2-Fluoro-4-(2-(((1r,4r)-4-((2-fluoroethyl)(methyl)amino)cyclohexyl)amino)-8-isopropyl-7-oxo-7,8-dihydropyrido[2,3-d]pyrimidin-6-yl)phenyl)propane-1-sulfonamide], with 0.14 nM; and `CC(C)n1c(=O)c(-c2cc(F)c(NS(=O)(=O)Cc3ccn(CC(F)(F)F)n3)c(F)c2F)cc2cnc(N[C@@H]3CNC[C@@H](F)C3)nc21` [Compound 158, N-(2,3,6-Trifluoro-4-(2-(((3S,5S)-5-fluoropiperidin-3-yl)amino)-8-isopropyl-7-oxo-7,8-dihydropyrido[2,3-d]pyrimidin-6-yl)phenyl)-1-(1-(2,2,2-trifluoroethyl)-1H-pyrazol-3-yl)methanesulfonamide], with 0.57 nM.
`CCCS(=O)(=O)Nc1ccc(-c2nc3cnc(N[C@H]4CC[C@H](N(C)C)CC4)nc3n(C(C)C)c2=O)c(F)c1` [Compound 161, N-(4-(2-(((1r,4r)-4-(Dimethylamino)cyclohexyl)amino)-8-isopropyl-7-oxo-7,8-dihydropteridin-6-yl)-3-fluorophenyl)propane-1-sulfonamide] yielded an IC50 of 0.18 nM.
The molecule `CC(C)n1c(=O)c(-c2ccc(NS(=O)(=O)N3CCCCC3)c(F)c2)nc2cnc(N[C@@H]3CNC[C@@H](F)C3)nc21` [Compound 162, N-(2-Fluoro-4-(2-(((3S,5S)-5-fluoropiperidin-3-yl)amino)-8-isopropyl-7-oxo-7,8-dihydropteridin-6-yl)phenyl)piperidine-1-sulfonamide] came in with an IC50 of 1.3 nM. Compared with the last molecule, the IC50 is about 7.2-fold higher.
Then `CC(C)n1c(=O)c(-c2ccc(NS(=O)(=O)N3CCCC3)c(F)c2)nc2cnc(N[C@@H]3CNC[C@@H](F)C3)nc21` [Compound 163, N-(2-Fluoro-4-(2-(((3S,5S)-5-fluoropiperidin-3-yl)amino)-8-isopropyl-7-oxo-7,8-dihydropteridin-6-yl)phenyl)pyrrolidine-1-sulfonamide], with 0.97 nM.
In turn, `CC(C)n1c(=O)c(-c2ccc(NS(=O)(=O)N(C)C)c(F)c2)nc2cnc(N[C@@H]3CNC[C@@H](F)C3)nc21` [Compound 164, 6-(4-(Dimethylsulfamoylamino)-3-fluoro-phenyl)-2-(((3S,5S)-5-fluoro-3-piperidyl)amino)-8-isopropyl-7-oxo-pteridine] came in with an IC50 of 0.43 nM. This IC50 is about 2.3-fold lower than that of the molecule before.
For `CCC(F)(F)CS(=O)(=O)Nc1ccc(-c2nc3cnc(N[C@H]4CC[C@H](N(C)C)CC4)nc3n(C(C)C)c2=O)cc1F` [Compound 165, N-(4-(2-(((1r,4r)-4-(Dimethylamino)cyclohexyl)amino)-8-isopropyl-7-oxo-7,8-dihydropteridin-6-yl)-2-fluorophenyl)-2,2-difluorobutane-1-sulfonamide hydrochloride], the IC50 amounted to 0.1 nM.
Then `Cc1ccc(CS(=O)(=O)Nc2ccc(-c3nc4cnc(N[C@@H]5CNC[C@@H](F)C5)nc4n(C(C)C)c3=O)cc2F)c(C#N)c1` [Compound 166, 1-(2-Cyano-4-methylphenyl)-N-(2-fluoro-4-(2-(((3S,5S)-5-fluoropiperidin-3-yl)amino)-8-isopropyl-7-oxo-7,8-dihydropteridin-6-yl)phenyl)methanesulfonamide], with 0.09 nM; and `CC(C)n1c(=O)c(-c2ccc(NS(=O)(=O)c3ccccc3Cl)c(F)c2)nc2cnc(N[C@H]3CC[C@H](N(C)C)CC3)nc21` [Compound 167, 2-Chloro-N-(4-(2-(((1r,4r)-4-(dimethylamino)cyclohexyl)amino)-8-isopropyl-7-oxo-7,8-dihydropteridin-6-yl)-2-fluorophenyl)benzenesulfonamide], with 0.18 nM; and `CC(C)n1c(=O)c(-c2c(F)cc(NS(=O)(=O)CCC(F)(F)F)cc2F)nc2cnc(N[C@H]3CC[C@H](N(C)C)CC3)nc21` [Compound 169, N-(4-(2-(((1r,4r)-4-(Dimethylamino)cyclohexyl)amino)-8-isopropyl-7-oxo-7,8-dihydropteridin-6-yl)-3,5-difluorophenyl)-3,3,3-trifluoropropane-1-sulfonamide], with 0.69 nM.
In the case of `Cc1ccc(CS(=O)(=O)Nc2c(F)cc(-c3nc4cnc(N[C@@H]5CNC[C@@H](F)C5)nc4n(C(C)C)c3=O)c(F)c2F)cc1` [Compound 170, 1-p-Tolyl-N-(2,3,6-trifluoro-4-(2-(((3S,5S)-5-fluoropiperidin-3-yl)amino)-8-isopropyl-7-oxo-7,8-dihydropteridin-6-yl)phenyl)methanesulfonamide hydrochloride] it was 0.13 nM; in that of `CC(C)n1c(=O)c(-c2cc(F)c(NS(=O)(=O)Cc3ccc(F)cc3)c(F)c2F)nc2cnc(N[C@@H]3CNC[C@@H](F)C3)nc21` [Compound 171, 1-(4-Fluorophenyl)-N-(2,3,6-trifluoro-4-(2-(((3S,5S)-5-fluoropiperidin-3-yl)amino)-8-isopropyl-7-oxo-7,8-dihydropteridin-6-yl)phenyl)methanesulfonamide hydrochloride], 0.12 nM.
Consider `CC(C)n1c(=O)c(-c2c(F)cc(NS(=O)(=O)CCC(F)(F)F)c(F)c2F)nc2cnc(N[C@H]3CC[C@H](N(C)C)CC3)nc21` [Compound 172, N-(4-(2-(((1r,4r)-4-(Dimethylamino)cyclohexyl)amino)-8-isopropyl-7-oxo-7,8-dihydropteridin-6-yl)-2,3,5-trifluorophenyl)-3,3,3-trifluoropropane-1-sulfonamide hydrochloride], for which the IC50 turned out to be 0.35 nM.
Molecule `COc1nc(NS(=O)(=O)c2ccccc2Cl)ccc1-c1nc2cnc(N[C@H]3CC[C@H](N(C)C)CC3)nc2n(C(C)C)c1=O` [Compound 173, 2-Chloro-N-(5-(2-(((1r,4r)-4-(dimethylamino)cyclohexyl)amino)-8-isopropyl-7-oxo-7,8-dihydropteridin-6-yl)-6-methoxypyridin-2-yl)benzenesulfonamide] showed an IC50 of 0.27 nM.
In the case of `CC(C)n1c(=O)c(-c2cc(F)c(NS(=O)(=O)Cc3ccc(F)cc3)cc2F)nc2cnc(N[C@H]3CC[C@H](N(C)C)CC3)nc21` [Compound 174, N-(4-(2-(((1r,4r)-4-(Dimethylamino)cyclohexyl)amino)-8-isopropyl-7-oxo-7,8-dihydropteridin-6-yl)-2,5-difluorophenyl)-1-(4-fluorophenyl)methanesulfonamide hydrochloride] it was 0.26 nM.
Then `CC(C)n1c(=O)c(-c2cc(F)c(NS(=O)(=O)Cc3ccc(F)cc3)c(F)c2F)nc2cnc(N[C@H]3CC[C@H](N(C)C)CC3)nc21` [Compound 175, N-(4-(2-(((1r,4r)-4-(Dimethylamino)cyclohexyl)amino)-8-isopropyl-7-oxo-7,8-dihydropteridin-6-yl)-2,3,6-trifluorophenyl)-1-(4-fluorophenyl)methanesulfonamide hydrochloride], with 0.14 nM.

By IC50 is commonly meant the concentration that inhibits the measured activity by half. Low readings indicate higher potency, high ones lower potency.
